Earlier results, collected in patent US20040019101A1, “Methods of treating gastrointestinary and genitourinary pain disorders” (priority 2002, published 2004).

Tests used:
adrenergic receptors = details: in vitro
dopamine reuptake = details: compared with serotonin and norepinephrine uptake
[1] = test system: monoamine neurotransmitter uptake
histaminergic receptors = details: in vitro
irritable bowel syndrome = details: in vivo
orocecal transit = details: healthy subjects or IBS patients

## COc1ccc(C(CN(C)C)C2(O)CCCCC2)cc1 (centres unmarked) [venlafaxine, 1-[2-(dimethylamino)-1-(4-methoxyphenyl)ethyl] cyclohexanol]
Norepinephrine uptake
  inhibition of norepinephrine uptake: potent inhibition
Adrenergic receptors
  affinity for adrenergic receptors: virtually no affinity
Dopamine reuptake
  inhibition of dopamine reuptake: To a lesser degree
[1]
  inhibition of monoamine neurotransmitter uptake: potent inhibitors
Histaminergic receptors
  affinity for histaminergic receptors: virtually no affinity
Monoamine oxidase
  inhibitory activity on monoamine oxidase: no inhibitory activity

## CN(C)CC(c1ccc(O)cc1)C1(O)CCCCC1 (centres unmarked) [O-desmethyl venlafaxine, 1-[(2-dimethylamino)-1-(4-hydoxyphenyl)ethyl]cyclohexanol]
[1]
  inhibition of monoamine neurotransmitter uptake: potent inhibitors

## CN(C)CCC=C1c2ccccc2COc2ccccc21 [doxepin]
Irritable bowel syndrome
  efficacy in treatment of irritable bowel syndrome: efficacious

## CN(C)CCC=C1c2ccccc2CCc2ccccc21 [amytriptiline]
Irritable bowel syndrome
  efficacy in treatment of irritable bowel syndrome: efficacious

## CN(C)CCCN1c2ccccc2CCc2ccccc21 [imipramine]
Irritable bowel syndrome
  efficacy in treatment of irritable bowel syndrome: efficacious
Orocecal transit
  effect on orocecal transit: prolong orocecal transit
